Data on 1 molecule can be found in EPA's ToxValDB 9.5 (doi:10.2903/j.efsa.2020.6227).

In general, NOAEL refers to the highest dose or exposure tested at which no adverse effect was seen. One may read the LC50 as the concentration that kills 50% of the test population.

SMILES strings stand for the structures.

One data set relates to Anas platyrhynchos. To be noted: oral.
A further data set deals with Apis mellifera. To be noted: acute, duration: 24 hours, mortality.
In the next data set the test system is Folsomia candida. To be noted: chronic/long-term; duration: 28 days; reproduction.
For the next data set, the system named is Tagia sp. To be noted: chronic/long-term; duration: 56 days; reproduction.
The next data set relates to Neomysis kadiakensis. To be noted: acute; duration: 96 hours; mortality.
For the next data set, the system named is Daphnia magna. To be noted: chronic/long-term; duration: 21 days.
Another data set concerns Bibionidae. To be noted: chronic/long-term; duration: 28 days.

As for `CC[C@H](C)[C@H]1O[C@]2(C=C[C@@H]1C)C[C@@H]1C[C@@H](C/C=C(\C)[C@@H](O[C@H]3C[C@H](OC)[C@@H](O[C@H]4C[C@H](OC)[C@@H](O)[C@H](C)O4)[C@H](C)O3)[C@@H](C)/C=C/C=C3\CO[C@@H]4[C@H](O)C(C)=C[C@@H](C(=O)O1)[C@]34O)O2.CO[C@H]1C[C@H](O[C@H]2[C@H](C)O[C@@H](O[C@@H]3/C(C)=C/C[C@@H]4C[C@@H](C[C@]5(C=C[C@H](C)[C@@H](C(C)C)O5)O4)OC(=O)[C@@H]4C=C(C)[C@@H](O)[C@H]5OC/C(=C\C=C\[C@@H]3C)[C@]54O)C[C@@H]2OC)O[C@@H](C)[C@@H]1O` [Abamectin], the LD50 was 8.7 mg/kg-day in the data set with Rattus norvegicus (acute, oral, M, mortality); 26 mg/kg-day in the data set on Anas platyrhynchos (acute, unspecified, mortality); 0.001 µg/piece in the data set on Apis mellifera (dermal); 0.004 µg/piece in the data set with Apis mellifera (oral, unspecified). Also, the no observed adverse effect level (NOAEL) with Rattus norvegicus (developmental, development) amounted to 0.12 mg/kg-day. Besides, the 50% lethal concentration (LC50) was 2.5 ng/mL in the data set with Oncorhynchus mykiss (acute, duration: 96 hours, mortality) and 0.02 ng/mL in the data set on Neomysis kadiakensis. Moreover, the NOEC in the data set on Oncorhynchus mykiss (chronic/long-term, duration: 72 days) was 0.52 µg/L; in the data set on Anas platyrhynchos (reproductive, feed), 6 mg/kg; in the data set on Folsomia candida it was 0.04 mg/kg; with Tagia sp., < 0.036 mg/kg; in the data set on Daphnia magna it was 0.0067 µg/L; with Bibionidae, 3.3 µg/kg.
